Measured values: publication PMC6797481, “Identification of an allosteric binding site on the human glycine transporter, GlyT2, for bioactive lipid analgesics” (eLife, 2019)

Legend:
[1] = set-up: method as in Mostyn et al., 2019; conditions: ref Mostyn et al., 2019; cited from earlier work
[2] = set-up: method as in Mostyn et al., 2019; conditions: ref Mostyn et al., 2019; cited from earlier work; remark: listed apart in the source
[3] = test system: GlyT2 F428A, V432A, Y550L, P561S, W563L and L569F mutants; test: Screen of GlyT2 point mutants for inhibition by 1 µM oleoyl L-carnitine; type: cell-based, human; conditions: range over F428A
Source text: The binding site for the allosteric serotonin reuptake inhibitor, (S)-citalopram, lies in the extracellular facing vestibule of SERT, formed by residues from TM1b, TM6a, TM10, and TM11 ([Coleman et al., 2016]). To determine if bioactive lipids inhibit GlyT2 by binding to this ‘vestibule allosteric site,’ corresponding residues in GlyT2 were mutated to remove potential interactions. OLCarn contains a bulky, zwitterionic head group conjugated to an oleoyl lipid tail, and was used as a screen to test mutant transporters for sensitivity to inhibition. None of the transporters containing mutations in the vestibule allosteric site display any change in inhibition compared to WT (Figure 1a). […] Mutations to GlyT2 residues were made either to resemble GlyT1, or to remove potential interactions with bioactive lipids but not disrupt the overall transport activity, often using substitutions present in the bacterial homologue, LeuT.
Figure 1. Defining the bioactive lipid binding site. (a) Inhibition of GlyT2 by 1 µM oleoyl L-carnitine. Transporters were WT or with mutations to the vestibule allosteric site (VAS) or adjacent to EL4. The reduced glycine transport currents were normalised to the current elicited by glycine alone. Data represented are means ± SEM with ****p<0.001 following a one way ANOVA test. […]

Compound	blood brain barrier permeability [1]	metabolic stability [2]	inhibition of glycine transport current [3]
oleoyl d-Lysine	blood brain barrier permeable	metabolically stable	
CCCCCCCC/C=C\CCCCCCCC(=O)O[C@H](CC(=O)[O-])C[N+](C)(C)C [oleoyl L-Carnitine, reference compound]			14.9–29.0%
